Each block holds one compound with its values, some of them ahead of it.
Molecular target: human GluN1/GluN2B NMDA receptors (Homo sapiens, UniProt Q05586+Q13224)
Assay: Cell-based calcium flux (FLIPR) assay on cloned human NR1/NR2B ion channels expressed in mammalian cells
Settings: standard assay
How it was run: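 Calcium influx followed by FLIPR fluorescence after 5 min compound exposure and a further 5 min co-agonist challenge: 10 μM glycine with glutamate at ~EC80 (standard) or EC40 (HTS).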

[1] = human GluN1/GluN2B, calcium flux (FLIPR), glutamate ~EC80
[2] = glutamate at ~EC80, FLIPR calcium flux

Sequence of human GluN1/GluN2B NMDA receptors (Q13224 27-1484, other chains not shown): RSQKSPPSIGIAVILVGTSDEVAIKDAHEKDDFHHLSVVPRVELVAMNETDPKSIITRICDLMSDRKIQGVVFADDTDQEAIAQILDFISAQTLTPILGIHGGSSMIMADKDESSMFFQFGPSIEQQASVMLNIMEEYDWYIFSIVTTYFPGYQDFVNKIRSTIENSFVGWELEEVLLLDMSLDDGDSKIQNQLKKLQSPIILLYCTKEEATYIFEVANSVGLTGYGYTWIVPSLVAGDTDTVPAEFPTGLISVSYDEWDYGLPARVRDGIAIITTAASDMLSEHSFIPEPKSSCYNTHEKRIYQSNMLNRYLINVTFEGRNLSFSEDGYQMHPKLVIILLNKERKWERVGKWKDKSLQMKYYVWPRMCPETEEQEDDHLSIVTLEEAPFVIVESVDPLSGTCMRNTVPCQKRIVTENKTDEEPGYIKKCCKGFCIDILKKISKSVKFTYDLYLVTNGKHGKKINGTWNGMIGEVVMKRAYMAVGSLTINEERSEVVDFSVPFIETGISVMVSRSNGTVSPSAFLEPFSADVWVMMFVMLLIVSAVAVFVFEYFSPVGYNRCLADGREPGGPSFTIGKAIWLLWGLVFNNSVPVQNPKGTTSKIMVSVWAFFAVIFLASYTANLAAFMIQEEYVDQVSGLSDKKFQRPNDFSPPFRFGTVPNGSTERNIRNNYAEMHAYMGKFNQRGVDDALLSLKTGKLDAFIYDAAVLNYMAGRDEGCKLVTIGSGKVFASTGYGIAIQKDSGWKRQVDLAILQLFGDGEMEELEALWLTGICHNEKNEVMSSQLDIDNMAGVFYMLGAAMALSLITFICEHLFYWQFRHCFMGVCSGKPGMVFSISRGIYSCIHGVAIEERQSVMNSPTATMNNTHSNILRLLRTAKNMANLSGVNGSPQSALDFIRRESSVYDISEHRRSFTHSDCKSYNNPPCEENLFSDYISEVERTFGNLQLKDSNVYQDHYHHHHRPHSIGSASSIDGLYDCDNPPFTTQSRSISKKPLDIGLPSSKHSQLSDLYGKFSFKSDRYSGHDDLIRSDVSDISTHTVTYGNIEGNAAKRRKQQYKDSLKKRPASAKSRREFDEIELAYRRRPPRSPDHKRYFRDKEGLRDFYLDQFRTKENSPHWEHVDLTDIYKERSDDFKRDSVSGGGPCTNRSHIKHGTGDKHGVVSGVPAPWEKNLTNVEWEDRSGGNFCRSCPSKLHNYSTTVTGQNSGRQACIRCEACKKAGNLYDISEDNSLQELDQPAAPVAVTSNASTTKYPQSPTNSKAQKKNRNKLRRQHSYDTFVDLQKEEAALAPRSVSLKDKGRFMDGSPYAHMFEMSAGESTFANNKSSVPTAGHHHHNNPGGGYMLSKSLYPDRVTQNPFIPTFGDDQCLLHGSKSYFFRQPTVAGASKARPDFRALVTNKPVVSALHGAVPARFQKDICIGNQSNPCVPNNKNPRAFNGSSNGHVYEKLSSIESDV

Compound: COc1ncccc1OCc1cn(-c2ccc(Cl)c(OC(F)F)c2)nn1 [Example 103, 3-[[1-[4-Chloro-3-(difluoromethoxy)phenyl]triazol-4-yl]methoxy]-2-methoxy-pyridine]
- IC50 [1]: 0.064 µM

Compound: CCc1cnc(OCc2nnn(-c3ccc(F)c(C(C)(F)F)c3)c2C)nc1 [Example 593, 2-[[1-[3-(1,1-Difluoroethyl)-4-fluoro-phenyl]-5-methyl-triazol-4-yl]methoxy]-5-ethyl-pyrimidine]
- IC50 [2]: 0.486 µM

Compound: COC1CN(c2cnc(OCc3cn(-c4ccc(F)c(C(F)F)c4)nn3)nc2)C1 [Example 418, 2-((1-(3-(Difluoromethyl)-4-fluorophenyl)-1H-1,2,3-triazol-4-yl)methoxy)-5-(3-methoxyazetidin-1-yl)pyrimidine]
- IC50 [2]: 0.271 µM

Compound: Fc1ccc(-n2cc(COc3ncc(C(F)(F)F)cn3)nn2)c(F)c1C(F)F [Example 652, 2-[[1-[3-(Difluoromethyl)-2,4-difluoro-phenyl]triazol-4-yl]methoxy]-5-(trifluoromethyl)pyrimidine]
- IC50 [2]: 0.112 µM

- IC50 [2]: 0.067 µM
Compound: CC(C)(O)c1cnc(OCc2cn(-c3ccc(Cl)c(C(F)F)c3)nn2)nc1 [Example 626, 2-[2-[[1-[4-Chloro-3-(difluoromethyl)phenyl]triazol-4-yl]methoxy]pyrimidin-5-yl]propan-2-ol]

Compound: COc1cnc(OCc2cn(-c3cccc(F)c3)nn2)nc1 [Example 230, 2-[[1-(3-Fluorophenyl)triazol-4-yl]methoxy]-5-methoxy-pyrimidine]
- IC50 [1]: 0.275 µM

Compound: CC(F)(F)c1cccc(-n2cc(COc3ncc(N4CCC4)cn3)nn2)c1 [Example 320, 5-(Azetidin-1-yl)-2-[[1-[3-(1,1-difluoroethyl)phenyl]triazol-4-yl]methoxy]pyrimidine]
- IC50 [1]: 0.061 µM

Compound: FC(F)Oc1cc(-n2cc(COc3ncccc3Cl)nn2)ccc1Cl [Example 105, 3-Chloro-2-[[1-[4-chloro-3-(difluoromethoxy)phenyl]triazol-4-yl]methoxy]pyridine]
- IC50 [1]: 0.059 µM

Compound: Fc1ccnc(OCc2cn(-c3ccc(Cl)c(OC(F)F)c3)nn2)n1 [Example 191, 2-[[1-[4-Chloro-3-(difluoromethoxy)phenyl]triazol-4-yl]methoxy]-4-fluoro-pyrimidine]
- IC50 [1]: 0.023 µM

Compound: COCc1ccnc(OCc2cn(-c3ccc(F)c(C(F)(F)F)c3)nn2)n1 [Example 438, 2-[[1-[4-Fluoro-3-(trifluoromethyl)phenyl]triazol-4-yl]methoxy]-4-(methoxymethyl)pyrimidine]
- IC50 [2]: 0.094 µM

Compound: Fc1ccc(-n2cc(COc3nccc(NC4CC4)n3)nn2)cc1C(F)F [Example 690, N-Cyclopropyl-2-((1-(3-(difluoromethyl)-4-fluorophenyl)-1H-1,2,3-triazol-4-yl)methoxy)pyrimidin-4-amine]
- IC50 [2]: 0.008 µM

Compound: COc1cnc(OCc2cn(-c3ccc(C(F)(F)F)s3)nn2)nc1 [Example 669, 5-Methoxy-2-((1-(5-(trifluoromethyl)thiophen-2-yl)-1H-1,2,3-triazol-4-yl)methoxy)pyrimidine]
- IC50 [2]: 0.004 µM

Compound: CC(C)(O)c1cnc(NCc2cn(-c3ccc(F)c(C(F)F)c3)nn2)nc1 [Example 214, 2-[2-[[1-[3-(Difluoromethyl)-4-fluoro-phenyl]triazol-4-yl]methylamino]pyrimidin-5-yl]propan-2-ol]
- IC50 [1]: 0.654 µM

- IC50 [2]: 0.482 µM
Compound: CC(O)(c1cnc(OCc2cn(-c3ccc(F)c(C(F)F)c3)nn2)nc1)C(F)(F)F (racemic) [Example 404, (R/S)-2-[2-[[1-[3-(Difluoromethyl)-4-fluoro-phenyl]triazol-4-yl]methoxy]pyrimidin-5-yl]-1,1,1-trifluoro-propan-2-ol]

Compound: FC(F)c1cc(-n2cc(CNc3ccncn3)nn2)ccc1Cl [Example 110, N-[[1-[4-Chloro-3-(difluoromethyl)phenyl]triazol-4-yl]methyl]pyrimidin-4-amine]
- IC50 [1]: 7.57 µM

- IC50 [1]: 0.013 µM
Compound: Nc1nc(OCc2cn(-c3ccc(F)c(OC(F)F)c3)nn2)ncc1F [Example 167, 2-((1-(3-(Difluoromethoxy)-4-fluorophenyl)-1H-1,2,3-triazol-4-yl)methoxy)-5-fluoropyrimidin-4-amine]

Compound: Cc1cnc(NCc2cn(-c3ccc(F)c(OC(F)F)c3)nn2)nc1 [Example 222, N-((1-(3-(Difluoromethoxy)-4-fluorophenyl)-1H-1,2,3-triazol-4-yl)methyl)-5-methylpyrimidin-2-amine]
- IC50 [1]: 0.064 µM

Compound: Fc1c(-n2cc(COc3ncc(Cl)cn3)nn2)cccc1C(F)(F)F [Example 461, 5-Chloro-2-[[1-[2-fluoro-3-(trifluoromethyl)phenyl]triazol-4-yl]methoxy]pyrimidine]
- IC50 [2]: 0.07 µM

Compound: COc1cnc(O[C@H](C)c2cn(-c3ccc(Cl)c(OC(F)F)c3)nn2)nc1 [Example 377, 2-[(1R)-1-[1-[4-Chloro-3-(difluoromethoxy)phenyl]triazol-4-yl]ethoxy]-5-methoxy-pyrimidine]
- IC50 [1]: 0.01 µM

- IC50 [2]: 0.919 µM
Compound: Fc1ccc(-n2cc(COc3cccc(C(F)(F)F)n3)nn2)cc1OC(F)F [Example 395, 2-[[1-[3-(Difluoromethoxy)-4-fluoro-phenyl]triazol-4-yl]methoxy]-6-(trifluoromethyl)pyridine]

Compound: CC(F)(F)c1cc(-n2cc(COc3nccc(N4CCCC4)n3)nn2)ccc1Cl [Example 553, 2-[[1-[4-Chloro-3-(1,1-difluoroethyl)phenyl]triazol-4-yl]methoxy]-4-pyrrolidin-1-yl-pyrimidine]
- IC50 [2]: 0.043 µM

Compound: FC(F)c1cccc(-n2cc(CNc3ncc(Cl)cn3)nn2)c1 [Example 153, 5-Chloro-N-[[1-[3-(difluoromethyl)phenyl]triazol-4-yl]methyl]pyrimidin-2-amine]
- IC50 [1]: 0.216 µM

Compound: FC(F)c1cc(-n2cc(COc3nccc(N4CCCCC4)n3)nn2)ccc1Cl [Example 635, 2-[[1-[4-Chloro-3-(difluoromethyl)phenyl]triazol-4-yl]methoxy]-4-(1-piperidyl)pyrimidine]
- IC50 [2]: 0.169 µM

Compound: Cc1cnc(OCc2cn(-c3ccc(Cl)c(C(F)F)c3)nn2)nc1N(C)C [Example 633, 2-[[1-[4-Chloro-3-(difluoromethyl)phenyl]triazol-4-yl]methoxy]-N,N,5-trimethyl-pyrimidin-4-amine]
- IC50 [2]: 0.057 µM

Compound: CC(F)(F)c1cccc(-n2cc(COc3nccc(CO)n3)nn2)c1 [Example 299, [2-[[1-[3-(1,1-Difluoroethyl)phenyl]triazol-4-yl]methoxy]pyrimidin-4-yl]methanol]
- IC50 [1]: 0.049 µM

Compound: COC(C)(C)c1cnc(OCc2cn(-c3ccc(F)c(C(F)(F)F)c3)nn2)nc1 [Example 436, 2-[[1-[4-Fluoro-3-(trifluoromethyl)phenyl]triazol-4-yl]methoxy]-5-(1-methoxy-1-methyl-ethyl)pyrimidine]
- IC50 [2]: 3.26 µM

Compound: Cc1cnc(OCc2cn(-c3ccc(F)c(OC(F)F)c3)nn2)cn1 [Example 396, 2-[[1-[3-(Difluoromethoxy)-4-fluoro-phenyl]triazol-4-yl]methoxy]-5-methyl-pyrazine]
- IC50 [2]: 0.647 µM

Compound: CC(F)(F)c1cc(-n2cc(COc3nccc(C(F)F)n3)nn2)ccc1F [Example 563, 2-[[1-[3-(1,1-Difluoroethyl)-4-fluoro-phenyl]triazol-4-yl]methoxy]-4-(difluoromethyl)pyrimidine]
- IC50 [2]: 0.048 µM

Compound: Cc1ccc(OCc2cn(-c3ccc(F)c(C(F)F)c3)nn2)nc1 [Example 114, 2-[[1-[3-(Difluoromethyl)-4-fluoro-phenyl]triazol-4-yl]methoxy]-5-methyl-pyridine]
- IC50 [1]: 0.021 µM

From patent US10233173B2, “Substituted 1,2,3-triazoles as NR2B-selective NMDA modulators” (JANSSEN PHARMACEUTICA NV, priority 2016, dated 2019)
